{"source": "patent US20210179680A1", "about": "“POLYPEPTIDE, DERIVATIVES THEREOF, AND APPLICATION THEREOF IN PREPARATION OF DRUGS HAVING RESISTANCE TO PULMONARY FIBROSIS” (priority 2016, published 2021)", "key": {"[1]": {"tested_on": "mice with bleomycin-induced pulmonary fibrosis", "experiment": "Survival rate of mice with bleomycin-induced pulmonary fibrosis", "type": "in vivo, C57BL/6 mice", "conditions": "twice a week", "procedure": "(§1) Male C57BL/6 mice were fasted overnight, then anesthetized with 45 mg/kg sodium pentobarbital by injection intraperitoneally (i.p.), and intratracheally injected with bleomycin at a dose of 3 U/kg. The specific operation steps are as follows: cut the neck skin of the mouse with as little trauma as possible, expose the trachea with the assistance of elbow ophthalmic forceps, puncture the trachea and inject about 50 μL of bleomycin into the trachea with a microsyringe, rotate the mouse quickly and stand it upright for 5 minutes in order to make bleomycin evenly enter the left and right lobe, thereby constructing an animal model. The whole operation was performed at a surgical table at about […]. Mice in the sham operation group were intratracheally injected with an equal amount of physiological saline for injection.\nThe animal model with pulmonary fibrosis was prepared according to the method described in Example 2. The peptide therapy was started from the 10th day after modeling (the treatment groups are shown in Table 3), and the time was calculated from the 10th day after modeling to count the mortality rate. The death situation of each group of experimental animals was counted and calculated daily. […] The survival rate is the percentage of the number of mice that survived accounting for the number of mice in the whole group. Results are shown in FIG. 6-1, FIG. 6-2 and Table 4. […] In FIG. 6-1 and FIG. 6-2, “##” represents that P value is less than 0.01 when the survival rate of administration group was compared with that of the sham operation group; “*” represents that P value is less than 0.05 when the survival rate of administration group was compared with that of the bleomycin group; “**” represents that P value is less than 0.01 when the survival rate of administration group was compared with that of bleomycin group; and “i.p.” refers to intraperitoneal injection.\nThe animal model of pulmonary fibrosis was prepared according to the method described in Example 2. The polypeptide treatment was started from the 10th day after modeling (the treatment groups are shown in Table 9), and the time was calculated from the 10th day after modeling to count the mortality rate. The mortality rate of each group of experimental animals was recorded and calculated daily. If none of the animals in a group died, the survival rate of the group is 100%. If all the animals in a group died, the survival rate is 0%. […] In FIG. 12, “##” represents that P value is less than 0.01 when the survival rate of the administration groups were compared with that of the sham operation group; “*” represents that P value is less than 0.05 and “**” represents that P value is less than 0.01 when the survival rate of the administration groups were compared with bleomycin group."}, "[2]": {"tested_on": "mice with bleomycin-induced pulmonary fibrosis", "experiment": "HE staining pathomorphology and inflammatory score of bleomycin-induced pulmonary fibrosis", "type": "in vivo, C57BL/6 mice", "conditions": "2 mg/kg i.p., after 28 days, grade 0-5; for Inflammatory score: Table 3 groups; for Inflammatory scoring: Table 9 groups", "procedure": "as §1\nGeneral tissue changes and tissue products can be visualized by HE staining method, namely Hematoxylin and Eosin staining method, which is the most commonly used staining method for morphology. Among them, hematoxylin dyeing solution is an alkaline dyeing solution, which mainly makes the chromatin in the nucleus and the ribosome in the cytoplasm purple blue; eosin is an acid dye, which mainly makes the components in the cytoplasm and extracellular matrix red. Pulmonary fibrosis models were made according to the method described in Example 2 and administered in groups according to Table 3. After 28 days, the right lower lobe of lung tissue of the experimental animals was taken, and fixed with 4% (v/v) paraformaldehyde and embedded in paraffin. Section was performed on the largest cross-section of the paraffin block in which the lung tissue embedded, and basic pathological changes was observed through HE staining. […] The administration of polypeptides S1-S11 can reduce lung inflammation caused by bleomycin, and effectively ameliorate lung injury and restore normal lung structure.\nThe inflammatory grading was observed according to the results of HE staining, and the criteria were as follows (grade 0-5): grade “0”: normal tissue; grade “1”: extremely small inflammatory changes; grade “2”: mild to moderate inflammatory changes without apparent destruction of lung tissue structure; grade “3”: moderate inflammatory injury (thickening of alveolar diaphragm); grade “4”: moderate to severe inflammatory injury with formation of tissue mass, or the normal structure of lung tissue was destroyed by localized pneumonia area; grade “5”: severe inflammatory injury, severe destruction of the localized lung tissue structure, resulting in closure of lumen.\nPulmonary fibrosis models were made according to the method described in Example 2 and administered in groups according to Table 9. After 28 days, the right lower lobe of lung tissue of the experimental animals was taken, and fixed by 4% (v/v) paraformaldehyde and embedded in paraffin. Section was performed on the largest cross-section of the paraffin block in which the lung tissue embedded, and basic pathological changes was observed through HE staining."}, "[3]": {"molecular_target": "T1, TRB3 protein (Homo sapiens, UniProt Q96RU7)", "T1 construct": "purchased RD", "T1 sequence (Q96RU7 1-358)": "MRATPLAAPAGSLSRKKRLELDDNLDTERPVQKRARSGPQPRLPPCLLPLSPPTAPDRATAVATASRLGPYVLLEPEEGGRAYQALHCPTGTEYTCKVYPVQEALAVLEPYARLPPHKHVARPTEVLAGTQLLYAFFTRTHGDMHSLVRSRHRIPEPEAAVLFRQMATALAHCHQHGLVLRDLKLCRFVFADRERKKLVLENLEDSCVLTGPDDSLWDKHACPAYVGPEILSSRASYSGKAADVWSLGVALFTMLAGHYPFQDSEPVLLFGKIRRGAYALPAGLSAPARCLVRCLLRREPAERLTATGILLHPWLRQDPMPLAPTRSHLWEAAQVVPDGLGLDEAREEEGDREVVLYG", "experiment": "Surface plasmon resonance (Biacore T200) binding of polypeptides to TRB3 protein", "conditions": "SPR, FIG. 4-1, 4-2 and Table 1", "procedure": "The surface plasmon resonance experiment was carried out in a surface plasmon resonator Biacore T200, and the procedure was carried out in accordance with the instructions of the plasma resonator Biacore T200. Specific steps are as follows:\n1. Purified TRB3 protein (purchased from RD) was coupled to a CMS chip (purchased from GE) by amidogen, and the unbound protein was eluted at a flow rate of 10 μL/min. The surface of the chip was equilibrated for 2 hours. Among them, the specific steps of amidogen coupling, elution and equilibration refer to the relevant instruction of GE's CMS chip.\n2. 250 μL of the S1-S11 and MR2 polypeptide fragments prepared in Example 1 with different concentrations (800, 400, 200, 50, 12.5, 6.25, and 3.125 nM) were automatically injected, and the entire surface plasmon resonance experiment was carried out at 25° C. The buffer used was HBS-EP buffer [0.01 M HEPES, 0.15 M NaCl, 3 mM EDTA and 0.005% (w/w) surfactant TWEEN20]. Biacore T200's built-in analysis software was used to simulate the binding curves of different concentrations of peptides to TRB3."}, "[4]": {"conditions": "Table 3 groups: 2 mg/kg i.p., 10th to 28th day after modeling"}, "[5]": {"conditions": "Table 9 groups (S19-S21): 2 mg/kg i.p., 10th to 28th day after modeling"}, "[6]": {"conditions": "Table 9 groups (S19-S21): 2 mg/kg i.p."}}, "note": "Bridge positions count the residues as written; N and C are the ends. Square brackets hold non-standard residues; d marks the D form. Peptide text beside a SMILES is read from it. S5 = C=CCCC[C@](C)(N)C(=O)O"}
{"molecule": "CSCC[C@H](NC(=O)[C@H](CC(C)C)NC(=O)[C@@H](N)Cc1c[nH]cn1)C(=O)N[C@@H](C)C(=O)N[C@@H](CS)C(=O)N[C@@H](Cc1ccccc1)C(=O)N[C@H](C(=O)N[C@@H](CS)C(=O)N[C@@H](C)C(=O)N[C@@H](CCCCN)C(=O)N[C@@H](CCCCN)C(=O)N[C@@H](CC(C)C)C(=O)N[C@@H](CCCCN)C(=O)N[C@@H](CCCCN)C(=O)N[C@@H](CCCNC(=N)N)C(=O)O)[C@@H](C)O", "note": "[MR2] (H-HLMACFTCAKKLKKR-OH; N-terminus and C-terminus assumed)", "values": [{"measurement": "Survival rate (%) 7 days", "setting": "[1]; [4]", "value": 100, "unit": "%"}, {"measurement": "Survival rate (%) 14 days", "setting": "[1]; [4]", "value": 93.33, "unit": "%"}, {"measurement": "Survival rate (%) 21 days", "setting": "[1]; [4]", "value": 73.33, "unit": "%"}, {"measurement": "Survival rate (%) 28 days", "setting": "[1]; [4]", "value": 66.67, "unit": "%"}, {"measurement": "Inflammatory score", "setting": "[2]", "value": 4}, {"measurement": "interaction with the TRB3 protein (in words)", "setting": "[3]", "value": "interacted with the TRB3 protein"}]}
{"molecule": "CSCC[C@@H]1NC(=O)[C@H](CC(C)C)NC(=O)[C@@](C)(N)CCCC=CCCC[C@@](C)(C(=O)N[C@@H](Cc2ccccc2)C(=O)N[C@H](C(=O)N[C@@H](CS)C(=O)N[C@@H](C)C(=O)N[C@@H](CCCCN)C(=O)N[C@@H](CCCCN)C(=O)N[C@@H](CC(C)C)C(=O)N[C@@H](CCCCN)C(=O)N[C@@H](CCCCN)C(=O)N[C@@H](CCCNC(=N)N)C(=O)O)[C@@H](C)O)NC(=O)[C@H](C)NC1=O", "note": "[S1, S5-Leu-Met-Ala-S5-Phe-Thr-Cys-Ala-Lys-Lys-Leu-Lys-Lys-Arg] (H-[S5]LMA[S5]FTCAKKLKKR-OH; staple 1-5; N-terminus and C-terminus assumed)", "values": [{"measurement": "Survival rate (%) 7 days", "setting": "[1]; [4]", "value": 100, "unit": "%"}, {"measurement": "Survival rate (%) 14 days", "setting": "[1]; [4]", "value": 86.67, "unit": "%"}, {"measurement": "Survival rate (%) 21 days", "setting": "[1]; [4]", "value": 80, "unit": "%"}, {"measurement": "Survival rate (%) 28 days", "setting": "[1]; [4]", "value": 80, "unit": "%"}, {"measurement": "Inflammatory score", "setting": "[2]", "value": 2.667}, {"measurement": "interaction with the TRB3 protein (in words)", "setting": "[3]", "value": "interacted with the TRB3 protein"}]}
{"molecule": "S19: chimeric polypeptide Pep2-MR2, amino acid sequence SEQ ID NO: 19 (HLYVSPWGGHLMACFTCAKKLKKR; chimeric polypeptide Pep2-MR2 S19)", "values": [{"measurement": "Survival rate (%) 7 days", "setting": "[1]; [5]", "value": 100, "unit": "%"}, {"measurement": "Survival rate (%) 14 days", "setting": "[1]; [6]", "value": 100, "unit": "%"}, {"measurement": "Survival rate (%) 21 days", "setting": "[1]; [6]", "value": 90, "unit": "%"}, {"measurement": "Survival rate (%) 28 days", "setting": "[1]; [6]", "value": 90, "unit": "%"}, {"measurement": "Inflammatory scoring", "setting": "[2]", "value": 1.833}]}
{"molecule": "S20: chimeric polypeptide TAT-MR2, amino acid sequence SEQ ID NO: 20 (YGRKKRRQRRRGGHLMACFTCAKKLKKR; chimeric polypeptide TAT-MR2 S20)", "values": [{"measurement": "Survival rate (%) 7 days", "setting": "[1]; [5]", "value": 100, "unit": "%"}, {"measurement": "Survival rate (%) 14 days", "setting": "[1]; [6]", "value": 91.67, "unit": "%"}, {"measurement": "Survival rate (%) 21 days", "setting": "[1]; [6]", "value": 75, "unit": "%"}, {"measurement": "Survival rate (%) 28 days", "setting": "[1]; [6]", "value": 75, "unit": "%"}, {"measurement": "Inflammatory scoring", "setting": "[2]", "value": 2.333}]}
{"molecule": "S21: chimeric polypeptide Antp-MR2, amino acid sequence SEQ ID NO: 21 (RQIKIWFQNRRMKWKKGGHLMACFTCAKKLKKR; chimeric polypeptide Antp-MR2 S21)", "values": [{"measurement": "Survival rate (%) 7 days", "setting": "[1]; [5]", "value": 100, "unit": "%"}, {"measurement": "Survival rate (%) 14 days", "setting": "[1]; [6]", "value": 100, "unit": "%"}, {"measurement": "Survival rate (%) 21 days", "setting": "[1]; [6]", "value": 75, "unit": "%"}, {"measurement": "Survival rate (%) 28 days", "setting": "[1]; [6]", "value": 75, "unit": "%"}, {"measurement": "Inflammatory scoring", "setting": "[2]", "value": 2.667}]}
